target: dopamine transporter (DAT) (Rattus norvegicus (Rat), UniProt P23977); test: [3H]dopamine (DA) uptake inhibition in rat brain (caudate) synaptosomes; assay type: biochemical; conditions: not given
Procedure: Uptake inhibition assay for the dopamine transporter was conducted in rat brain synaptosomes as described elsewhere with minor modifications (Rothman et al., Synapse 39, 32-41 (2001)). Freshly removed caudate was homogenized in 10% ice-cold sucrose with 12 strokes of a hand-held Potter-Elvehjem homogenizer followed by centrifugation at 1000×g for 10 min. The supernatants were saved on ice and used immediately. Transporter activity was assessed using 5 nM [^3H]dopamine. The assay buffer was Krebs-phosphate buffer containing 154.4 mM NaCl, 2.9 mM KCl, 1.1 mM CaCl2, 0.83 mM MgCl2, 5 mM glucose, 1 mg/mL ascorbic acid, and 50 μM pargyline. The selectivity of the uptake assay for DAT was optimized by including 100 nM citalopram and 100 nM desipramine as blockers of SERT and NET in the sucrose solution and assay buffer. Uptake inhibition assays were conducted at 25° C. and were initiated by adding 100 μl of tissue to 900 μL assay buffer containing test drug and [^3H]dopamine. Test drugs were diluted in assay buffer containing 1 mg/mL bovine serum albumin. Nonspecific uptake was measured by incubating in the presence of 10 μM indatraline. The reactions were stopped after 15 minutes by rapid vacuum filtration with a cell harvester (BRANDEL) over GF/B filters (Whatman) presoaked in wash buffer maintained at 25° C. (10 mM Tris-HCl, pH 7.4/150 mM NaCl). Filters were rinsed with 6 mL wash buffer and retained tritium was quantified by a MicroBeta liquid scintillation counter (PerkinElmer) after overnight extraction in 0.6 mL of liquid scintillation cocktail (Cytoscint, ICN). The data from three experiments were pooled and fit to a dose-response curve equation (using Kaleidagraph), to yield an Emax and EC50 value.
All of the test compounds were synthesized as described herein. Next, 8-point dose-response curves were generated for each compound (1-20,000 nM) in the [^3H]DA uptake assay. The data from three experiments were pooled and fit to a dose-response curve equation (using KaleidaGraph; Synergy Software, Reading, Pa.) to yield an Emax and IC50 value. […] Selected compounds were also tested for their ability to inhibit [^3H]WIN35428 binding to rat caudate DAT.

dopamine transporter (DAT), sequence (P23977 whole entry): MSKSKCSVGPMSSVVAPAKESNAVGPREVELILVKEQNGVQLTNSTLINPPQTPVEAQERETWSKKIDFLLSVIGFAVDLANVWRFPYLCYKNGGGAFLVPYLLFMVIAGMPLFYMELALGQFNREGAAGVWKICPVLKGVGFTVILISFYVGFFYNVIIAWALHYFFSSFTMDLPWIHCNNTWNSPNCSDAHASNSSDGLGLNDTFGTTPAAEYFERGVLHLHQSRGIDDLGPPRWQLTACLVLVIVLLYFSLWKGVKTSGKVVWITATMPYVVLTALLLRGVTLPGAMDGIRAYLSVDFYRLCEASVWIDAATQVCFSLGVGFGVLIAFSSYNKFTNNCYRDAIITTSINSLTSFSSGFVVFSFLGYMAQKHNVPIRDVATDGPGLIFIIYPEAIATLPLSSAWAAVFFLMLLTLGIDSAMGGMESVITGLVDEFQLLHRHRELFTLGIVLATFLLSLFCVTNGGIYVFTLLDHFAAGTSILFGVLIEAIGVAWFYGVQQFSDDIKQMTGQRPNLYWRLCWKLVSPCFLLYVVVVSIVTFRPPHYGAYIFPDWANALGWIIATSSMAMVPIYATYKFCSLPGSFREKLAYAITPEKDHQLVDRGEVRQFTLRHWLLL

Efficacy of [3H]DA (DAT) uptake inhibition, in words | SMILES
partially inhibits | CN(C)c1ccc(-c2nc(NCC(c3ccccc3)N3CCOCC3)c3ccccc3n2)cc1 (stereo not drawn) [Compound 18, 2-(4-(dimethylamino)phenyl)-N-(2-morpholino-2-phenylethyl)quinazolin-4-amine]

same assay, conditions: [3H]DA uptake, one-component fit

One-Site Emax [% I] | SMILES
75 ± 5 | CN(C)c1ccc(-c2nc(NCC(c3ccccc3)N3CCOCC3)c3ccccc3n2)cc1 (stereo not drawn) [Compound 18, 2-(4-(dimethylamino)phenyl)-N-(2-morpholino-2-phenylethyl)quinazolin-4-amine]

same assay, conditions: [3H]DA uptake, two-component fit, component 1

Two-Site Emax-1 [% I] | SMILES
57 ± 2 | CN(C)c1ccc(-c2nc(NCC(c3ccccc3)N3CCOCC3)c3ccccc3n2)cc1 (stereo not drawn) [Compound 18, 2-(4-(dimethylamino)phenyl)-N-(2-morpholino-2-phenylethyl)quinazolin-4-amine]

same assay, conditions: [3H]DA uptake, two-component fit, component 2

Two-Site Emax-2 [% I] | SMILES
42 ± 4 | CN(C)c1ccc(-c2nc(NCC(c3ccccc3)N3CCOCC3)c3ccccc3n2)cc1 (stereo not drawn) [Compound 18, 2-(4-(dimethylamino)phenyl)-N-(2-morpholino-2-phenylethyl)quinazolin-4-amine]

same assay, conditions: rat caudate synaptosomes, 5 nM [3H]dopamine, mean ± SD

SMILES | DA Uptake Emax [% I] | EC50 [nM]
Cc1ccc(-c2nc(NCC(c3ccccc3)c3cccc(Cl)n3)c3ccccc3n2)cc1 (stereo not drawn) [Compound 1, N-(2-(6-chloropyridin-2-yl)-2-phenylethyl)-2-(p-tolyl)quinazolin-4-amine] | 100 | 380
CS(=O)(=O)Nc1ccc(-c2nc(NCC(c3ccccc3)c3ccccn3)c3ccccc3n2)cc1 (stereo not drawn) [Compound 2, N-(4-(4-((2-phenyl-2-(pyridin-2-yl)ethyl)amino)quinazolin-2-yl)phenyl)methanesulfonamide] | 90 ± 3 | 50 ± 10
CN(C)c1ccc(-c2nc(NCC(O)(c3ccccc3)c3ccccc3)c3ccccc3n2)cc1 [Compound 5, 2-((2-(4-(dimethylamino)phenyl)quinazolin-4-yl)amino)-1,1-diphenylethanol] | 74 ± 2 | 6.7 ± 1.4
CS(=O)(=O)Nc1ccc(-c2nc(NCC(c3ccccc3)C3CCCCC3)c3ccccc3n2)cc1 (stereo not drawn) [Compound 6, N-(4-(4-((2-cyclohexyl-2-phenylethyl)amino)quinazolin-2-yl)phenyl)methanesulfonamide] | 75 ± 2 | 16 ± 2
CN(C)c1ccc(-c2nc(NCC(c3ccccc3)C3CCCCC3)c3ccccc3n2)cc1 (stereo not drawn) [Compound 7, N-(2-cyclohexyl-2-phenylethyl)-2-(4-(dimethylamino)phenyl)quinazolin-4-amine] | 71 ± 3 | 46 ± 10
CS(=O)(=O)Nc1ccc(-c2nc(NCC(c3ccccc3)c3ncccn3)c3ccccc3n2)cc1 (stereo not drawn) [Compound 8, N-(4-(4-((2-phenyl-2-(pyrimidin-2-yl)ethyl)amino)quinazolin-2-yl)phenyl)methanesulfonamide] | 88 ± 3 | 477 ± 75
CS(=O)(=O)Nc1ccc(-c2nc(NCC(c3ccccc3)n3ccnc3)c3ccccc3n2)cc1 (stereo not drawn) [Compound 12, N-(4-(4-((2-(1H-imidazol-1-yl)-2-phenylethyl)amino)quinazolin-2-yl)phenyl)methanesulfonamide] | 70 ± 3 | 100 ± 22
CS(=O)(=O)Nc1ccc(-c2nc(NCC(c3ccccc3)c3ccc[nH]3)c3ccccc3n2)cc1 (stereo not drawn) [Compound 15, N-(4-(4-((2-phenyl-2-(1H-pyrrol-2-yl)ethyl)amino)quinazolin-2-yl)phenyl)methanesulfonamide] | 63 ± 2 | 43 ± 8
CN(C)c1ccc(-c2nc(NCC(c3ccccc3)N3CCCCC3)c3ccccc3n2)cc1 (stereo not drawn) [Compound 16, 2-(4-(dimethylamino)phenyl)-N-(2-phenyl-2-(piperidin-1-yl)ethyl)quinazolin-4-amine] | 88 ± 4 | 34 ± 9
CS(=O)(=O)Nc1ccc(-c2nc(NCC(c3ccccc3)N3CCCCC3)c3ccccc3n2)cc1 (stereo not drawn) [Compound 17, N-(4-(4-((2-phenyl-2-(piperidin-1-yl)ethyl)amino)quinazolin-2-yl)phenyl)methanesulfonamide] | 83 ± 5 | 62 ± 20
CN(C)c1ccc(-c2nc(NCC(c3ccccc3)N3CCOCC3)c3ccccc3n2)cc1 (stereo not drawn) [Compound 18, 2-(4-(dimethylamino)phenyl)-N-(2-morpholino-2-phenylethyl)quinazolin-4-amine] | 75 ± 5 | 15 ± 7
CS(=O)(=O)Nc1ccc(-c2nc(NCC(c3ccccc3)N3CCOCC3)c3ccccc3n2)cc1 (stereo not drawn) [Compound 19, N-(4-(4-((2-morpholino-2-phenylethyl)amino)quinazolin-2-yl)phenyl)methanesulfonamide] | 71 ± 4 | 43 ± 13
CS(=O)(=O)Nc1ccc(-c2nc(NCC(c3ccccc3)N3CCCC3)c3ccccc3n2)cc1 (stereo not drawn) [Compound 20, N-(4-(4-((2-phenyl-2-(pyrrolidin-1-yl)ethyl)amino)quinazolin-2-yl)phenyl)methanesulfonamide] | 79 ± 5 | 160 ± 51
CN1CCN(C(CNc2nc(-c3ccc(N(C)C)cc3)nc3ccccc23)c2ccccc2)CC1 (stereo not drawn) [Compound 22, 2-(4-(dimethylamino)phenyl)-N-(2-(4-methylpiperazin-1-yl)-2-phenylethyl)quinazolin-4-amine] | 91 ± 4 | 30 ± 8
CN1CCN(C(CNc2nc(-c3ccc(NS(C)(=O)=O)cc3)nc3ccccc23)c2ccccc2)CC1 (stereo not drawn) [Compound 23, N-(4-(4-((2-(4-methylpiperazin-1-yl)-2-phenylethyl)amino)quinazolin-2-yl)phenyl)methanesulfonamide] | 77 ± 3 | 62 ± 15
CS(=O)(=O)Nc1ccc(-c2nc(NCC(Cc3ccccc3)c3ccccc3)c3ccccc3n2)cc1 (stereo not drawn) [Compound 27, N-(4-(4-((2,3-diphenylpropyl)amino)quinazolin-2-yl)phenyl)methanesulfonamide] | 76 ± 2 | 58 ± 9
Cc1cc(N(C)C)ccc1-c1nc(NCC(c2ccccc2)c2ccc(CO)[nH]2)c2ccccc2n1 (stereo not drawn) [Compound 28, (5-(2-((2-(4-(dimethylamino)-2-methylphenyl)quinazolin-4-yl)amino)-1-phenylethyl)-1H-pyrrol-2-yl)methanol] | 84 ± 5 | 18 ± 7
CS(=O)(=O)Nc1ccc(-c2nc(NCC(c3cccnc3)c3ccc[nH]3)c3ccccc3n2)cc1 (stereo not drawn) [Compound 30, N-(4-(4-((2-(pyridin-3-yl)-2-(1H-pyrrol-2-yl)ethyl)amino)quinazolin-2-yl)phenyl)methanesulfonamide] | 79 ± 3 | 202 ± 42

Other lines, results leading:

DA Uptake Emax [% I] | EC50 [nM] | SMILES
91 ± 4 | 22 ± 6 | CN(C)c1ccc(-c2nc(NCC(c3ccccc3)c3ccccn3)c3ccccc3n2)cc1 (stereo not drawn) [Compound 3, 2-(4-(dimethylamino)phenyl)-N-(2-phenyl-2-(pyridin-2-yl)ethyl)quinazolin-4-amine]
91 ± 3 | 117 ± 22 | CN(C)c1ccc(-c2nc(NCC(c3ccccc3)c3ncccn3)c3ccccc3n2)cc1 (stereo not drawn) [Compound 9, 2-(4-(dimethylamino)phenyl)-N-(2-phenyl-2-(pyrimidin-2-yl)ethyl)quinazolin-4-amine]
77 ± 2 | 13 ± 3 | CN(C)c1ccc(-c2nc(NCC(c3ccccc3)c3ccncc3)c3ccccc3n2)cc1 (stereo not drawn) [Compound 11, 2-(4-(Dimethylamino)phenyl)-N-(2-phenyl-2-(pyridin-4-yl)ethyl)quinazolin-4-amine]
86 ± 3 | 138 ± 21 | CN(C)c1ccc(-c2nc(NCC(c3ccccc3)n3ccnc3)c3ccccc3n2)cc1 (stereo not drawn) [Compound 13, N-(2-(1H-imidazol-1-yl)-2-phenylethyl)-2-(4-(dimethylamino)phenyl)quinazolin-4-amine]
77 ± 4 | 5.6 ± 2.1 | CN(C)c1ccc(-c2nc(NCC(c3ccccc3)c3ccc[nH]3)c3ccccc3n2)cc1 (stereo not drawn) [Compound 14, 2-(4-(dimethylamino)phenyl)-N-(2-phenyl-2-(1H-pyrrol-2-yl)ethyl)quinazolin-4-amine]
92 ± 4 | 112 ± 26 | CN(C)c1ccc(-c2nc(NCC(c3ccccc3)N3CCCC3)c3ccccc3n2)cc1 (stereo not drawn) [Compound 21, 2-(4-(dimethylamino)phenyl)-N-(2-phenyl-2-(pyrrolidin-1-yl)ethyl)quinazolin-4-amine]
79 ± 3 | 24 ± 5 | CN(C)c1ccc(-c2nc(NCC(c3ccccc3)c3cccnc3)c3ccccc3n2)cc1 (stereo not drawn) [Compound 24, 2-(4-(dimethylamino)phenyl)-N-(2-phenyl-2-(pyridin-3-yl)ethyl)quinazolin-4-amine]
73 ± 2 | 25 ± 4 | CS(=O)(=O)Nc1ccc(-c2nc(NCC(c3ccccc3)c3cccnc3)c3ccccc3n2)cc1 (stereo not drawn) [Compound 25, N-(4-(4-((2-phenyl-2-(pyridin-3-yl)ethyl)amino)quinazolin-2-yl)phenyl)methanesulfonamide]
78 ± 3 | 39 ± 9 | CN(C)c1ccc(-c2nc(NCC(Cc3ccccc3)c3ccccc3)c3ccccc3n2)cc1 (stereo not drawn) [Compound 26, 2-(4-(dimethylamino)phenyl)-N-(2,3-diphenylpropyl)quinazolin-4-amine]
85 ± 4 | 47 ± 12 | CN(C)c1ccc(-c2nc(NCC(c3cccnc3)c3ccc[nH]3)c3ccccc3n2)cc1 (stereo not drawn) [Compound 31, 2-(4-(dimethylamino)phenyl)-N-(2-(pyridin-3-yl)-2-(1H-pyrrol-2-yl)ethyl)quinazolin-4-amine]
